Among the data in PubChem BioAssay (NCI) are TGI and GI50 values, retold here.

“And” between values parts separate entries of the source, which are not always exact repeats. Equal values may be shown once.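 All cell lines were grown in 96-well plates and treated with compound for 48 hours. GI50 is the concentration that inhibits growth by half. The concentration for full growth arrest is given as TGI.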 Where a SMILES comes first, the peptide text is derived from it. The star is where a group is joined. Boc = CC(C)(C)OC(=O)*

Test in all cases: inhibition of tumour cell growth, NCI panel, 48 h
Experiment [1] has as its system COLO 205 colon.
The subject of experiment [2] is DU-145 prostate.
Experiment [3] deals with OVCAR-4 ovarian.
Experiment [4] deals with IGROV1 ovarian.
Experiment [5] deals with MOLT-4 leukemia.
For experiment [6], the system named is HT29 colon.
The test system of experiment [7] is UACC-257 melanoma.
For experiment [8], the system named is SK-MEL-28 melanoma.
The subject of experiment [9] is HOP-62 NSCLC.
The subject of experiment [10] is SF-268 CNS.

As for `O=C(NNc1cn[nH]c(=O)c1Cl)/C(=C/c1ccc2c(c1)OCO2)NC(=O)c1ccccc1`, the TGI in experiment [1], in experiment [2], in [3], in experiment [4], in [5] and in [6] was over 100 µM throughout. The TGI in experiment [7], in [8] and in [9] was over 100 µM in each case.

Consider `CCOC(=O)CCc1c(C(=O)OCC)[nH]c(/C=C2\NC(=O)C(C)=C2CC)c1C`, for which the TGI is over 100 µM in [1]; 55.6 µM in [2]; 92.1 µM in experiment [10]; 59.4 µM in [3]; 23.7 µM in [4]; over 100 µM in experiment [5]. Further, the TGI was over 100 µM in experiment [6], over 100 µM in experiment [8] and 27.6 µM in experiment [9].

As to `OCC(O)C1OC2CC1Nc1ccccc1N2` (centres undefined), the TGI in [1], in [2], in experiment [10], in experiment [4], in experiment [5] and in experiment [6] was over 100 µM in each case. For the same compound, the TGI in experiment [7], in [8] and in [9] was over 100 µM each time.

For `CCCC(CC)c1c(O)c(O)c(C(CC)CCC)c(C(CC)CCC)c1C(CC)CCC` (centres undefined), the TGI in experiment [1], in [2], in experiment [10], in [3], in [4] and in experiment [6] was over 10 µM in each case. The TGI in [7], in [8] and in experiment [9] was over 10 µM throughout.

On to `Cc1cccc2nc3cccc(C(=O)NCCC[N+](C)(CCCNC(=O)c4cccc5nc6cccc(C)c6nc45)Cc4c([N+](=O)[O-])ncn4C)c3nc12`, for which the GI50 was 184 µM in [1]; 20.8 µM in [2]; 19.2 µM in [10]; 14.8 µM in experiment [3]; 8.38 µM in experiment [5]; 1.96 µM in experiment [6]. In addition, the GI50 is 63 µM in [7] and 403 µM in experiment [8]. In addition, the TGI in experiment [1] was over 1100 µM; in [2], over 1100 µM; in [10], over 1100 µM; in [3], over 1100 µM; in experiment [4] it was over 1100 µM; in [6], 96.5 µM. Also, the TGI in experiment [7] and in experiment [8] was over 1100 µM each time.

Regarding `COc1ccccc1NC(=S)N/N=C(/C)c1ccccn1`, the TGI in experiment [2] was over 100 µM; in experiment [3] it was over 100 µM; in experiment [5] it was over 100 µM; in experiment [6], over 100 µM; in experiment [8] it was over 100 µM; in [9], 36.7 µM.

As for `COC(=O)C(Cc1c[nH]c2ccccc12)NC(=O)C(Cc1c[nH]c2ccccc12)NC(=O)C(Cc1c[nH]c2ccccc12)NC(=O)C(Cc1c[nH]c2ccccc12)NC(=O)OC(C)(C)C` (centres undefined) (Boc-WWWW-OMe; configuration not given here), the TGI was over 100 µM in experiment [2]; over 100 µM in experiment [10]; over 100 µM in experiment [3]; over 100 µM in [4]; 20.7 µM in experiment [5]; 49 µM in experiment [6]. Also, the TGI in experiment [7] was over 100 µM; in [8] it was over 100 µM; in experiment [9], 67 µM.

For `O=C1C=C2CO[C@H]3OC[C@H](O)[C@@H]1[C@@H]23`, the TGI in experiment [1] was 30 µM; in [2], over 100 µM; in experiment [10], over 100 µM; in [4], over 100 µM; in experiment [5], over 100 µM; in experiment [6] it was over 100 µM. In addition, the results for the TGI in experiment [7], in experiment [8] and in experiment [9] were 86.4 µM, over 100 µM and over 100 µM, respectively.

`Cc1ccc(NC(=S)Nc2c(C)n(C)n(-c3ccccc3)c2=O)cc1`: the TGI in experiment [1], in experiment [2], in experiment [10], in [4], in [5] and in experiment [6] was over 100 µM in each case. Also, the TGI in experiment [7], in [8] and in experiment [9] was over 100 µM in each case.

In the case of `CO/C(=N\N=C\c1ccc(Cl)cc1Cl)c1ccncc1`, the TGI in experiment [1], in [2], in experiment [10], in experiment [3], in experiment [5] and in experiment [6] was over 10 µM throughout. Also, the TGI in [7] and in experiment [9] was over 10 µM in each case.

With `O=C1CCCC2=C1C(c1ccc3c(c1)OCO3)Nc1ccc3ccccc3c12` (centres undefined), the TGI in [1], in [2], in experiment [10], in experiment [4], in experiment [6] and in [7] was over 100 µM throughout. Besides, the TGI in experiment [8] and in [9] was over 100 µM in each case.

As to `Cc1nccn1S(=O)(=O)c1ccc(Br)cc1Br`, the TGI in experiment [1] is 33.4 µM; in [2], over 100 µM; in experiment [10], over 100 µM; in experiment [3] it was over 100 µM; in [4] it was over 100 µM; in experiment [5], 96.1 µM. Besides, the TGI in [6], in experiment [7] and in [8] was over 100 µM in each case.

Regarding `N#CC(C#N)=Cc1c(O)ccc2ccccc12`, the TGI in [1] worked out at 44.5 µM; in [2], 27.8 µM; in experiment [10], 33.1 µM; in experiment [3] it was 43.6 µM; in experiment [4], 39.4 µM; in experiment [6], 41.1 µM. For the same compound, the TGI was 32.6 µM in [7], 28.9 µM in experiment [8] and 50.2 µM in [9].

On to `CN(C)CCCNc1c2ccccc2nc2cccc([N+](=O)[O-])c12`, for which the TGI is 0.0131 µM in experiment [2]; 0.00943 µM and 0.0426 µM in experiment [10]; under 0.001 µM in [3]; 0.00491 µM in experiment [4]; 0.052 µM in experiment [5]; 0.00749 µM and 0.0452 µM in [7]. The TGI in [8] is 0.00689 µM and 0.0422 µM. Also, the results for the GI50 in experiment [7], in [8] and in [9] were 0.0207 µM, 0.0202 µM and 0.0222 µM, respectively.
